Legend:
Format in all cases: cell-based, human
Egr-1 and p-ERK proteins [1] = assay: ROS inhibitor assay (Western blot), HaCaT; details: 10 uM/ml NAC 2 hours before ZnO, 1 hour after ZnO, FIG. 13B
Protocol: (§1) A Western blot assay was performed in the same manner as described in Example 2, except for the following differences. At 2 hours before treatment with ZnO, cultured cells were treated with 10 uM/ml of the antioxidant N-acetyl cystein (NAC), and after 2 hours, the cells were treated with 2 ml of fresh DMEM medium free of FBS and P/S. After 1 hour from the treatment with ZnO, the medium was removed, and the cells were treated with 1×PBS, scraped with a scrapper, and then transferred to a 1.5 ml tube. […] Thus, it can be seen that the expressions of the marker proteins Egr-1 and p-ERK are increased by ROS (B: HaCaT, C: HEKn). Herein, the data points indicate the β-actin-normalized mean and ERK-normalized mean of three independent experiments compared using two-way Anova (***P<0.001).

Egr-1 and p-ERK proteins [2] = assay: ROS inhibitor assay (Western blot), HEKn; details: 10 uM/ml NAC 2 hours before ZnO, 1 hour after ZnO, FIG. 13C
Protocol: as §1

Egr-1 protein = assay: MAPK inhibitor assay (Western blot, ZnO plus MAPK inhibitor); details: cells pre-treated with inhibitor 30 minutes before ZnO; 2 hours after ZnO
Protocol: (§2) A Western blot assay was performed in the same manner as described in Example 2, except for the following differences. At 30 minutes before treatment with ZnO, cells were treated with an MAPK (mitogen-activated proteinkinase) inhibitor (U0126: ERK inhibitor, SB600125: p38 inhibitor, SP239063: JNK inhibitor-sigma product), and after 30 minutes, the cells were treated with 2 ml of fresh DMEM medium free of FBS and P/S. After 2 hours from treatment with ZnO, the medium was removed, and the cells were treated with 1×PBS, scraped with a scrapper, and then transferred to a 1.5 ml tube.
as §2, with “from the” for “from”

| SMILES | expression bands of Egr-1 protein (Egr-1 and p-ERK proteins [1]) | expression bands of p-ERK protein (Egr-1 and p-ERK proteins [1]) | expression bands of Egr-1 protein (Egr-1 and p-ERK proteins [2]) | expression bands of p-ERK protein (Egr-1 and p-ERK proteins [2]) | expression of the Egr-1 protein (Egr-1 protein) |
| --- | --- | --- | --- | --- | --- |
| CC(=O)N[C@@H](CS)C(=O)O [NAC, N-acetyl cystein] | significantly decreased | significantly decreased | significantly decreased | significantly decreased |  |
| N#CC(=C(/N)Sc1ccccc1N)/C(C#N)=C(\N)Sc1ccccc1N [U0126] |  |  |  |  | significantly decreased |
